Converted amounts (≈) assume the structure as drawn.
Key:
Saccharomyces cerevisiae [1] = assay: DNA damaging activity against yeast Sc7 mutant assessed as drug level required to produce 12 mm zone of inhibition; type: functional
A2780 = assay: Cytotoxicity against human A2780 cells; type: functional, cell-based
Saccharomyces cerevisiae [2] = assay: DNA damaging activity against yeast 1140 mutant assessed as drug level required to produce 12 mm zone of inhibition; type: functional
Saccharomyces cerevisiae [3] = assay: DNA damaging activity against yeast 1138 mutant assessed as drug level required to produce 12 mm zone of inhibition; type: functional
Saccharomyces cerevisiae [4] = assay: DNA damaging activity against yeast 1353 mutant assessed as drug level required to produce 12 mm zone of inhibition; type: functional

C/C=C(/C)C(=O)O[C@H]1[C@H](OC(=O)C=C(C)C)[C@@]2(CO)[C@H](CC1(C)C)C1=CC[C@@H]3[C@@]4(C)CC[C@H](O[C@@H]5O[C@H](C(=O)O)[C@@H](O[C@H]6O[C@H](CO)[C@@H](O)[C@@H]6O)[C@H](O[C@H]6OC[C@@H](O)[C@@H](O)[C@@H]6O)[C@H]5O[C@@H]5O[C@H](CO)[C@@H](O)[C@H](O)[C@H]5O)C(C)(C)[C@@H]4CC[C@@]3(C)[C@]1(C)[C@@H](O)[C@H]2O [PITTOVIRIDOSIDE]
IC12 (Saccharomyces cerevisiae [1]): 100 µg/mL | IC50 (A2780): 10.1 mg/L (≈ 7.93 µM) | IC12 (Saccharomyces cerevisiae [2]): 80 µg/mL | IC12 (Saccharomyces cerevisiae [3]): 85 µg/mL | IC12 (Saccharomyces cerevisiae [4]): 140 µg/mL

— ChEMBL document CHEMBL1159308, “A new triterpene saponin from Pittosporum viridiflorum from the Madagascar rainforest” (J Nat Prod, 2002)
